Experimental data published in article PMC6864627, “Synthesis of Novel Triazinoindole-Based Thiourea Hybrid: A Study on α-Glucosidase Inhibitors and Their Molecular Docking” (Molecules, 2019).

Target: T1, α-glucosidase (Saccharomyces cerevisiae, UniProt P53341)
T1 construct: purchased Sigma Inc
Test: α-glucosidase inhibition assay
Assay type: biochemical
Details: 50 mM phosphate buffer pH 6.8; 0.057 units enzyme; standard acarbose
Method: The α-glucosidase activity was executed according to Fazal et al.. The following chemicals were used (concentrations): • 70 μL of 50 mM phosphate buffer (pH 6.8); • 10 μL (0.5 mM in methanol) test compounds; and • 10 μL (0.057 units, Sigma Inc.) of enzyme solution in buffer. For details on the experiment, kindly see Reference.

T1 sequence (P53341 whole entry): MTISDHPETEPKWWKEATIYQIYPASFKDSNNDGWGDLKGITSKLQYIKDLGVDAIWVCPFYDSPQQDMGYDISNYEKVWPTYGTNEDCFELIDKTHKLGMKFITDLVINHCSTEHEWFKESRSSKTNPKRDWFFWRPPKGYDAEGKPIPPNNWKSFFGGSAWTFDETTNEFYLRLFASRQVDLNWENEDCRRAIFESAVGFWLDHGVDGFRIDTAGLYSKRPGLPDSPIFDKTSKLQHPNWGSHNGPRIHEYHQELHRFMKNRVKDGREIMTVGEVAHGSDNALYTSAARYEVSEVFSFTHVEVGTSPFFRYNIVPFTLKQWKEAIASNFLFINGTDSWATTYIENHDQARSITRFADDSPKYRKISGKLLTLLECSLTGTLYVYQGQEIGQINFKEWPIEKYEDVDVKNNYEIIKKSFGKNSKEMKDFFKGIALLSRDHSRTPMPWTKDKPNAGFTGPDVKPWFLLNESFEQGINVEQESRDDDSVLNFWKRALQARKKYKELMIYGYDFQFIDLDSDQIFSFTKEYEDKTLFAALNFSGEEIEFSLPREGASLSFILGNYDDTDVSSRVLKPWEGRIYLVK

Row | SMILES | IC50 [µM]
1 | Cc1cccc(C)c1NC(=S)NN=C(CSc1nnc2c(n1)[nH]c1ccccc12)c1cccc([N+](=O)[O-])c1 [Compound 14, 2-(2-((5H-[1,2,4]triazino[5,6-b]indol-3-yl)thio)-1-(3-nitrophenyl)ethylidene)-N-(2,6-dimethylphenyl)hydrazine-1-carbothioamide] | 7.5 ± 0.2
2 | O=[N+]([O-])c1ccc(C(CSc2nnc3c(n2)[nH]c2ccccc23)=NNC(=S)Nc2ccccc2)cc1 [Compound 9, 2-(2-((5H-[1,2,4]triazino[5,6-b]indol-3-yl)thio)-1-(4-nitrophenyl)ethylidene)-N-phenylhydrazine-1-carbothioamide] | 6.8 ± 0.1
3 | O=[N+]([O-])c1cccc(C(CSc2nnc3c(n2)[nH]c2ccccc23)=NNC(=S)Nc2cccc(Cl)c2Cl)c1 [Compound 23, 2-(2-((5H-[1,2,4]triazino[5,6-b]indol-3-yl)thio)-1-(3-nitrophenyl)ethylidene)-N-(2,3-dichlorophenyl)hydrazine-1-carbothioamide] | 1.3 ± 0.01
4 | Cc1ccc(NC(=S)NN=C(CSc2nnc3c(n2)[nH]c2ccccc23)c2ccc(-c3ccccc3)cc2)cc1 [Compound 4, 2-(2-((5H-[1,2,4]triazino[5,6-b]indol-3-yl)thio)-1-([1,1′-biphenyl]-4-yl)ethylidene)-N-(p-tolyl)hydrazine-1-carbothioamide] | 12.8 ± 0.3
5 | COc1ccc(C(CSc2nnc3c(n2)[nH]c2ccccc23)=NNC(=S)Nc2ccc([N+](=O)[O-])cc2)cc1 [Compound 2, 2-(2-((5H-[1,2,4]triazino [5,6-b]indol-3-yl)thio)-1-(4-methoxyphenyl)ethylidene)-N-(4-nitrophenyl)hydrazine-1-carbothioamide] | 2.6 ± 0.05
6 | Cc1ccc(C(CSc2nnc3c(n2)[nH]c2ccccc23)=NNC(=S)Nc2ccc(Cl)c(Cl)c2)cc1 [Compound 21, 2-(2-((5H-[1,2,4]triazino[5,6-b]indol-3-yl)thio)-1-(p-tolyl)ethylidene)-N-(3,4-dichlorophenyl)hydrazine-1-carbothioamide] | 4.8 ± 0.2
7 | COc1ccc(C(CSc2nnc3c(n2)[nH]c2ccccc23)=NNC(=S)Nc2cccc(C)c2C)cc1 [Compound 22, 2-(2-((5H-[1,2,4]triazino[5,6-b]indol-3-yl)thio)-1-(4-methoxyphenyl)ethylidene)-N-(2,3-dimethylphenyl)hydrazine-1-carbothioamide] | 5.9 ± 0.1
8 | Cc1ccc(C(CSc2nnc3c(n2)[nH]c2ccccc23)=NNC(=S)Nc2ccccc2Br)cc1 [Compound 7, 2-(2-((5H-[1,2,4]triazino[5,6-b]indol-3-yl)thio)-1-(p-tolyl)ethylidene)-N-(2-bromophenyl)hydrazine-1-carbothioamide] | 33.3 ± 0.6
9 | COc1ccc(C(CSc2nnc3c(n2)[nH]c2ccccc23)=NNC(=S)Nc2cccc(Cl)c2Cl)cc1 [Compound 1, 2-(2-((5H-[1,2,4]triazino [5,6-b]indol-3-yl)thio)-1-(4-methoxyphenyl)ethylidene)-N-(2,3-dichlorophenyl)hydrazine-1-carbothioamide] | 1.3 ± 0.05
10 | Cc1ccc(NC(=S)NN=C(CSc2nnc3c(n2)[nH]c2ccccc23)c2ccc(C)cc2)cc1 [Compound 8, 2-(2-((5H-[1,2,4]triazino[5,6-b]indol-3-yl)thio)-1-(p-tolyl)ethylidene)-N-(p-tolyl)hydrazine-1-carbothioamide] | 17.5 ± 0.3
11 | O=[N+]([O-])c1cccc(C(CSc2nnc3c(n2)[nH]c2ccccc23)=NNC(=S)Nc2ccccc2)c1 [Compound 17, 2-(2-((5H-[1,2,4]triazino[5,6-b]indol-3-yl)thio)-1-(3-nitrophenyl)ethylidene)-N-phenylhydrazine-1-carbothioamide] | 8.8 ± 0.2
12 | S=C(NN=C(CSc1nnc2c(n1)[nH]c1ccccc12)c1ccc(-c2ccccc2)cc1)Nc1ccccc1Br [Compound 6, 2-(2-((5H-[1,2,4]triazino[5,6-b]indol-3-yl)thio)-1-([1,1′-biphenyl]-4-yl)ethylidene)-N-(2-bromophenyl)hydrazine-1-carbothioamide] | 25.3 ± 0.5
13 | COc1ccc(C(CSc2nnc3c(n2)[nH]c2ccccc23)=NNC(=S)Nc2c(C)cccc2C)cc1 [Compound 15, 2-(2-((5H-[1,2,4]triazino[5,6-b]indol-3-yl)thio)-1-(4-methoxyphenyl)ethylidene)-N-(2,6-dimethylphenyl)hydrazine-1-carbothioamide] | 5.8 ± 0.2
14 | S=C(NN=C(CSc1nnc2c(n1)[nH]c1ccccc12)c1ccc(-c2ccccc2)cc1)Nc1ccccc1 [Compound 24, 2-(2-((5H-[1,2,4]triazino[5,6-b]indol-3-yl)thio)-1-([1,1′-biphenyl]-4-yl)ethylidene)-N-phenylhydrazine-1-carbothioamide] | 15.3 ± 0.3
15 | Cc1cccc(C)c1NC(=S)NN=C(CSc1nnc2c(n1)[nH]c1ccccc12)c1ccc(-c2ccccc2)cc1 [Compound 13, 2-(2-((5H-[1,2,4]triazino[5,6-b]indol-3-yl)thio)-1-([1,1′-biphenyl]-4-yl)ethylidene)-N-(2,6-dimethylphenyl)hydrazine-1-carbothioamide] | 23.3 ± 0.5
16 | COc1ccc(C(CSc2nnc3c(n2)[nH]c2ccccc23)=NNC(=S)Nc2ccccc2)cc1 [Compound 25, 2-(2-((5H-[1,2,4]triazino[5,6-b]indol-3-yl)thio)-1-(4-methoxyphenyl)ethylidene)-N-phenylhydrazine-1-carbothioamide] | 9.3 ± 0.3
17 | Cc1ccc(C(CSc2nnc3c(n2)[nH]c2ccccc23)=NNC(=S)Nc2c(C)cccc2C)cc1 [Compound 20, 2-(2-((5H-[1,2,4]triazino[5,6-b]indol-3-yl)thio)-1-(p-tolyl)ethylidene)-N-(2,6-dimethylphenyl)hydrazine-1-carbothioamide] | 7.5 ± 0.2
18 | Cc1ccc(NC(=S)NN=C(CSc2nnc3c(n2)[nH]c2ccccc23)c2cccc([N+](=O)[O-])c2)cc1 [Compound 12, 2-(2-((5H-[1,2,4]triazino[5,6-b]indol-3-yl)thio)-1-(3-nitrophenyl)ethylidene)-N-(p-tolyl)hydrazine-1-carbothioamide] | 8.3 ± 0.2
19 | COc1ccc(C(CSc2nnc3c(n2)[nH]c2ccccc23)=NNC(=S)Nc2ccc(C)cc2)cc1 [Compound 5, 2-(2-((5H-[1,2,4]triazino[5,6-b]indol-3-yl)thio)-1-(4-methoxyphenyl)ethylidene)-N-(p-tolyl)hydrazine-1-carbothioamide] | 5.2 ± 0.3
20 | O=[N+]([O-])c1cccc(C(CSc2nnc3c(n2)[nH]c2ccccc23)=NNC(=S)Nc2ccccc2Br)c1 [Compound 11, 2-(2-((5H-[1,2,4]triazino[5,6-b]indol-3-yl)thio)-1-(3-nitrophenyl)ethylidene)-N-(2-bromophenyl)hydrazine-1-carbothioamide] | 26.8 ± 0.7
21 | S=C(NN=C(CSc1nnc2c(n1)[nH]c1ccccc12)c1ccc(-c2ccccc2)cc1)Nc1cccc(Cl)c1Cl [Compound 3, 2-(2-((5H-[1,2,4]triazino [5,6-b]indol-3-yl)thio)-1-([1,1′-biphenyl]-4-yl)ethylidene)-N-(2,3-dichlorophenyl)hydrazine-1-carbothioamide] | 7.5 ± 0.2
22 | COc1ccc(C(CSc2nnc3c(n2)[nH]c2ccccc23)=NNC(=S)Nc2ccc(Cl)c(Cl)c2)cc1 [Compound 18, 2-(2-((5H-[1,2,4]triazino[5,6-b]indol-3-yl)thio)-1-(4-methoxyphenyl)ethylidene)-N-(3,4-dichlorophenyl)hydrazine-1-carbothioamide] | 2.3 ± 0.05
23 | COc1ccc(C(CSc2nnc3c(n2)[nH]c2ccccc23)=NNC(=S)Nc2ccccc2Br)cc1 [Compound 10, 2-(2-((5H-[1,2,4]triazino[5,6-b]indol-3-yl)thio)-1-(4-methoxyphenyl)ethylidene)-N-(2-bromophenyl)hydrazine-1-carbothioamide] | 35.8 ± 0.8
24 | COc1ccc(C(CSc2nnc3c(n2)[nH]c2ccccc23)=NNC(=S)Nc2ccc(F)cc2)cc1 [Compound 16, 2-(2-((5H-[1,2,4]triazino[5,6-b]indol-3-yl)thio)-1-(4-methoxyphenyl)ethylidene)-N-(4-fluorophenyl)hydrazine-1-carbothioamide] | 1.8 ± 0.2
25 | S=C(NN=C(CSc1nnc2c(n1)[nH]c1ccccc12)c1ccc(-c2ccccc2)cc1)Nc1ccc(Cl)c(Cl)c1 [Compound 19, 2-(2-((5H-[1,2,4]triazino[5,6-b]indol-3-yl)thio)-1-([1,1′-biphenyl]-4-yl)ethylidene)-N-(3,4-dichlorophenyl)hydrazine-1-carbothioamide] | 2.3 ± 0.05
